Data from the supplement of paper PMC10307832.

What was measured:
Experiment in all cases: relative viability (nuclei count vs DMSO), 5 days (fraction); higher = more cells survive
Dabrafenib + Palbociclib = compound: CC(C)(C)c1nc(-c2cccc(NS(=O)(=O)c3c(F)cccc3F)c2F)c(-c2ccnc(N)n2)s1 [Dabrafenib] + CC(=O)c1c(C)c2cnc(Nc3ccc(N4CCNCC4)cn3)nc2n(C2CCCC2)c1=O [Palbociclib] (partner 0.5 µM)
Summary of the method: (§1)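 Medians of duplicate plates are given as relative viability. That measure is the nuclei count in treated wells divided by the count in vehicle wells. Counts were taken on 4× images of lung cancer cell lines in 1536-well plates, 5 days after pin-tool dosing the day after seeding with one drug alone or a fixed anchor-drug dose plus five library-drug doses (not always all listed) in √10 steps.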

Dabrafenib + Pemetrexed = compound: CC(C)(C)c1nc(-c2cccc(NS(=O)(=O)c3c(F)cccc3F)c2F)c(-c2ccnc(N)n2)s1 [Dabrafenib] + Nc1nc2[nH]cc(CCc3ccc(C(=O)N[C@@H](CCC(=O)O)C(=O)O)cc3)c2c(=O)[nH]1 [Pemetrexed] (partner 0.2 µM)
Summary of the method: as §1

VX-702 + Alpelisib = compound: NC(=O)c1ccc(N(C(N)=O)c2c(F)cccc2F)nc1-c1ccc(F)cc1F [VX-702] + Cc1nc(NC(=O)N2CCC[C@H]2C(N)=O)sc1-c1ccnc(C(C)(C)C(F)(F)F)c1 [Alpelisib] (partner 2 µM)
Summary of the method: as §1

VX-702 + Decitabine = compound: NC(=O)c1ccc(N(C(N)=O)c2c(F)cccc2F)nc1-c1ccc(F)cc1F [VX-702] + Nc1ncn([C@H]2C[C@H](O)[C@@H](CO)O2)c(=O)n1 [Decitabine] (partner 2 µM)
Summary of the method: as §1

Cell Line	relative viability (Dabrafenib + Palbociclib; first compound 0.003 µM)	relative viability (Dabrafenib + Palbociclib; first compound 0.009487 µM)	relative viability (Dabrafenib + Palbociclib; first compound 0.03 µM)	relative viability (Dabrafenib + Palbociclib; first compound 0.09487 µM)	relative viability (Dabrafenib + Palbociclib; first compound 0.3 µM)	relative viability (Dabrafenib + Pemetrexed; first compound 0.003 µM)	relative viability (Dabrafenib + Pemetrexed; first compound 0.009487 µM)	relative viability (Dabrafenib + Pemetrexed; first compound 0.03 µM)	relative viability (Dabrafenib + Pemetrexed; first compound 0.09487 µM)	relative viability (Dabrafenib + Pemetrexed; first compound 0.3 µM)	relative viability (VX-702 + Alpelisib; first compound 0.02 µM)	relative viability (VX-702 + Alpelisib; first compound 0.2 µM)	relative viability (VX-702 + Alpelisib; first compound 0.6325 µM)	relative viability (VX-702 + Alpelisib; first compound 2 µM)	relative viability (VX-702 + Decitabine; first compound 0.02 µM)	relative viability (VX-702 + Decitabine; first compound 0.2 µM)	relative viability (VX-702 + Decitabine; first compound 0.6325 µM)	relative viability (VX-702 + Decitabine; first compound 2 µM)
NCI-H2009	0.153	0.22	0.179	0.149	0.128	0.997	0.956	0.818	0.761	0.701	1.21	1.22	1.24	1.35	0.392	0.435	0.454	0.399
NCI-H1792		0.718	0.66	0.63	0.66		1.03	0.622	0.723	0.525	0.668	0.66	0.637	0.479	0.555	0.614	0.491	0.532
HCC-15	0.714	0.779	0.769	0.729	0.78	0.221	0.225	0.227	0.212	0.215	0.844	0.777	0.848	0.956	0.656	0.586	0.627	0.647
EPLC-272H		0.318	0.286	0.366	0.354	0.273	0.271	0.304	0.262	0.488	0.982	0.752	0.965	1.01	0.353	0.373	0.374	0.403
SW 1573	0.431	0.484	0.363	0.349	0.392	0.79	0.9	0.792	0.777	0.782	0.789	0.64	0.759	0.652	0.518	0.434	0.412	0.437
NCI-H1793		0.411		0.289	0.291		1.08		0.911	1.17	0.822	0.583	0.545	0.959	0.545		0.449	0.458
LXF-289	0.59	0.594	0.673	0.62	0.616	0.751	0.872	0.965	0.813	1.08	1.07	1.03	1.01	1.05	0.313	0.403	0.381	0.357
NCI-H2023	0.419	0.417	0.48	0.371	0.421	0.229	0.247	0.207	0.211	0.255	0.55	0.606	0.483	0.561	0.23	0.219	0.211	0.231
HARA		0.325		0.304	0.338		0.221	0.252	0.238	0.247	0.789	0.832	0.836	0.921	0.567		0.512	0.523
SK-LU-1		0.395	0.238	0.365	0.371		1.06	0.898	0.865	0.715	1.08	0.972	1.04	1.34	0.625	0.61	0.653	0.702
LCLC-97TM1		0.206	0.266	0.184	0.198		0.198	0.198	0.124	0.139	0.187	0.238	0.205	0.227	0.241	0.232	0.232	0.228
